In PubChem BioAssay (NCI):
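The compound was tested at five concentrations on cells cultured in 96-well plates, with a 48-hour exposure period. The concentration for full growth arrest is given as TGI.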

Experiments:
Assay in all cases: NCI tumour cell line growth inhibition, 48 h
[1] = tested on: SNB-75 CNS
[2] = tested on: DLD-1 colon
[3] = tested on: HCT-15 colon
[4] = tested on: SK-OV-3 ovarian
[5] = tested on: LOX IMVI melanoma
[6] = tested on: OVCAR-5 ovarian
[7] = tested on: OVCAR-8 ovarian
[8] = tested on: UACC-62 melanoma
[9] = tested on: MALME-3M melanoma
[10] = tested on: M14 melanoma
[11] = tested on: DMS 273 small cell lung
[12] = tested on: A498 renal
[13] = tested on: HOP-18 NSCLC
[14] = tested on: KM12 colon
[15] = tested on: UO-31 renal
[16] = tested on: SF-295 CNS
[17] = tested on: NCI-H522 lung
[18] = tested on: U251 CNS
[19] = tested on: OVCAR-3 ovarian
[20] = tested on: SF-268 CNS
[21] = tested on: MOLT-4 leukemia
[22] = tested on: IGROV1 ovarian
[23] = tested on: COLO 205 colon
[24] = tested on: K-562 leukemia
[25] = tested on: CAKI-1 renal
[26] = tested on: LXFL 529 NSCLC
[27] = tested on: TK-10 renal
[28] = tested on: UACC-257 melanoma
[29] = tested on: HOP-62 NSCLC
[30] = tested on: RXF 393 renal
[31] = tested on: RPMI-8226 leukemia
[32] = tested on: SK-MEL-2 melanoma
[33] = tested on: A549 NSCLC
[34] = tested on: KM20L2 colon
[35] = tested on: HCC-2998 colon
[36] = tested on: NCI-H460 lung
[37] = tested on: HOP-92 NSCLC
[38] = tested on: EKVX NSCLC
[39] = tested on: OVCAR-4 ovarian
[40] = tested on: SK-MEL-28 melanoma
[41] = tested on: ACHN renal
[42] = tested on: 786-0 renal
[43] = tested on: SNB-78 CNS
[44] = tested on: XF 498 CNS
[45] = tested on: SW-620 colon
[46] = tested on: RXF-631 renal
[47] = tested on: DMS 114 small cell lung
[48] = tested on: NCI-H23 lung
[49] = tested on: SF-539 CNS
[50] = tested on: SK-MEL-5 melanoma
[51] = tested on: HCT-116 colon
[52] = tested on: HT29 colon
[53] = tested on: SN12C renal
[54] = tested on: SNB-19 CNS
[55] = tested on: SR leukemia
[56] = tested on: CCRF-CEM leukemia
[57] = tested on: NCI-H226 lung
[58] = tested on: HL-60(TB) leukemia
[59] = tested on: M19-MEL melanoma

O=C(Nc1cccc(Cl)c1)c1cc2cc(N=Nc3ccc(Br)cc3)ccc2oc1=O
TGI [1]: > 100 µM | TGI [2]: > 100 µM | TGI [3]: > 100 µM | TGI [4]: > 100 µM | TGI [5]: 45.1 µM | TGI [6]: 58 µM | TGI [7]: > 100 µM | TGI [8]: 39.1 µM | TGI [9]: > 100 µM | TGI [10]: 52.9 µM | TGI [11]: 55.6 µM | TGI [12]: > 100 µM | TGI [13]: > 100 µM | TGI [14]: 76 µM | TGI [15]: > 100 µM | TGI [16]: > 100 µM | TGI [17]: > 100 µM | TGI [18]: > 100 µM | TGI [19]: > 100 µM | TGI [20]: > 100 µM | TGI [21]: 77.7 µM | TGI [22]: > 100 µM | TGI [23]: > 100 µM | TGI [24]: > 100 µM | TGI [25]: > 100 µM | TGI [26]: 30.5 µM | TGI [27]: > 100 µM | TGI [28]: > 100 µM | TGI [29]: > 100 µM | TGI [30]: > 100 µM | TGI [31]: > 100 µM | TGI [32]: 52.7 µM | TGI [33]: > 100 µM | TGI [34]: > 100 µM | TGI [35]: 88.7 µM | TGI [36]: > 100 µM | TGI [37]: > 100 µM | TGI [38]: > 100 µM | TGI [39]: 88.7 µM | TGI [40]: > 100 µM | TGI [41]: > 100 µM | TGI [42]: > 100 µM | TGI [43]: > 100 µM | TGI [44]: > 100 µM | TGI [45]: > 100 µM | TGI [46]: > 100 µM | TGI [47]: 56.6 µM | TGI [48]: 64.3 µM | TGI [49]: > 100 µM | TGI [50]: > 100 µM | TGI [51]: > 100 µM | TGI [52]: > 100 µM | TGI [53]: > 100 µM | TGI [54]: > 100 µM

COc1nc(NC2OCC(OC(C)=O)C(OC(C)=O)C2OC(C)=O)c(N=C(C)C(C)=O)c(=O)n1C (configuration not stated)
TGI [55]: > 100 µM | TGI [1]: > 100 µM | TGI [2]: > 100 µM | TGI [3]: > 100 µM | TGI [5]: > 100 µM | TGI [6]: > 100 µM | TGI [7]: > 100 µM | TGI [9]: > 100 µM | TGI [10]: > 100 µM | TGI [11]: > 100 µM | TGI [12]: > 100 µM | TGI [13]: > 100 µM | TGI [14]: > 100 µM | TGI [15]: > 100 µM | TGI [56]: > 100 µM | TGI [16]: > 100 µM | TGI [18]: > 100 µM | TGI [20]: > 100 µM | TGI [21]: > 100 µM | TGI [22]: > 100 µM | TGI [23]: > 100 µM | TGI [24]: > 100 µM | TGI [25]: > 100 µM | TGI [27]: > 100 µM | TGI [28]: > 100 µM | TGI [30]: > 100 µM | TGI [31]: > 100 µM | TGI [32]: > 100 µM | TGI [33]: > 100 µM | TGI [34]: > 100 µM | TGI [36]: > 100 µM | TGI [37]: > 100 µM | TGI [38]: > 100 µM | TGI [39]: > 100 µM | TGI [40]: > 100 µM | TGI [41]: > 100 µM | TGI [57]: > 100 µM | TGI [43]: > 100 µM | TGI [58]: > 100 µM | TGI [44]: > 100 µM | TGI [45]: > 100 µM | TGI [46]: > 100 µM | TGI [47]: > 100 µM | TGI [48]: > 100 µM | TGI [49]: > 100 µM | TGI [50]: > 100 µM | TGI [51]: > 100 µM | TGI [52]: > 100 µM | TGI [53]: > 100 µM | TGI [54]: > 100 µM

Cc1ccc(S(=O)(=O)c2ccccn2)cc1
TGI [1]: > 100 µM | TGI [2]: > 100 µM | TGI [3]: > 100 µM | TGI [4]: > 100 µM | TGI [5]: > 100 µM | TGI [6]: 97.2 µM | TGI [7]: > 100 µM | TGI [8]: > 100 µM | TGI [9]: > 100 µM | TGI [10]: > 100 µM | TGI [11]: > 100 µM | TGI [12]: > 100 µM | TGI [13]: > 100 µM | TGI [14]: > 100 µM | TGI [15]: > 100 µM | TGI [56]: > 100 µM | TGI [16]: > 100 µM | TGI [17]: > 100 µM | TGI [18]: > 100 µM | TGI [19]: > 100 µM | TGI [20]: > 100 µM | TGI [21]: > 100 µM | TGI [22]: > 100 µM | TGI [23]: > 100 µM | TGI [24]: > 100 µM | TGI [25]: > 100 µM | TGI [26]: > 100 µM | TGI [27]: > 100 µM | TGI [28]: > 100 µM | TGI [29]: > 100 µM | TGI [30]: > 100 µM | TGI [31]: > 100 µM | TGI [32]: > 100 µM | TGI [33]: > 100 µM | TGI [34]: > 100 µM | TGI [35]: > 100 µM | TGI [36]: > 100 µM | TGI [37]: > 100 µM | TGI [38]: > 100 µM | TGI [39]: > 100 µM | TGI [40]: > 100 µM | TGI [41]: > 100 µM | TGI [57]: > 100 µM | TGI [42]: > 100 µM | TGI [43]: > 100 µM | TGI [58]: > 100 µM | TGI [44]: > 100 µM | TGI [45]: > 100 µM | TGI [46]: > 100 µM | TGI [47]: > 100 µM | TGI [48]: > 100 µM | TGI [49]: > 100 µM | TGI [50]: > 100 µM | TGI [59]: > 100 µM | TGI [51]: > 100 µM | TGI [52]: > 100 µM | TGI [53]: > 100 µM | TGI [54]: > 100 µM
